Source: a compilation of properties of binary mixtures (doi:10.1021/je3004904)

Experiment: xn = mol fraction of the nth substance listed
Settings: 101 kPa

Cn1cc[nH+]c1.[Cl-] + Cl[Al](Cl)Cl
Settings	electrical conductivity, x2 = 0.643 [S/m]	electrical conductivity, x2 = 0.667 [S/m]	viscosity, x2 = 0.643 [mPa·s]	viscosity, x2 = 0.667 [mPa·s]
293.15 K	–	–	78.3	50.8
298.15 K	0.456	0.601	59.41	40.23
303.15 K	0.553	–	46.88	–
308.15 K	0.661	0.827	38.17	27.36
313.15 K	–	0.961	–	23.28
318.15 K	0.909	1.1	27.17	20.13
323.15 K	1.05	1.25	23.58	17.66
328.15 K	1.2	1.4	20.75	15.67
333.15 K	1.36	1.56	18.5	14.06
338.15 K	1.53	1.74	16.67	12.72
343.15 K	1.7	1.92	15.15	11.61

[Cl][Al]([Cl])[Cl] + CCCC[n+]1ccn(C)c1.[Cl-]
Settings	electrical conductivity [S/m]	viscosity [mPa·s]
293.15 K, x1 = 0.5	–	41.63
293.15 K, x1 = 0.5238	–	38.28
293.15 K, x1 = 0.545	–	35.03
293.15 K, x1 = 0.5454	–	34.99
293.15 K, x1 = 0.5653	–	32.26
293.15 K, x1 = 0.583	–	30.37
293.15 K, x1 = 0.5834	–	30.34
293.15 K, x1 = 0.6001	–	28.34
293.15 K, x1 = 0.615	–	26.91
293.15 K, x1 = 0.6154	–	26.89
293.15 K, x1 = 0.6296	–	25.31
293.15 K, x1 = 0.6429	–	24.35
293.15 K, x1 = 0.6551	–	23.44
293.15 K, x1 = 0.6667	–	22.54
298.15 K, x1 = 0.583	0.947	25.24
298.15 K, x1 = 0.615	0.931	22.59
298.15 K, x1 = 0.643	0.919	20.62
298.15 K, x1 = 0.667	0.912	19.42
303.15 K, x1 = 0.5	–	28.33
303.15 K, x1 = 0.545	1.14	24.35
303.15 K, x1 = 0.5454	–	24.32
303.15 K, x1 = 0.583	1.1	21.38
303.15 K, x1 = 0.5834	–	21.36
303.15 K, x1 = 0.6001	–	20.2
303.15 K, x1 = 0.615	1.07	19.34
303.15 K, x1 = 0.6154	–	19.33
303.15 K, x1 = 0.6296	–	18.29
303.15 K, x1 = 0.6551	–	17.1
303.15 K, x1 = 0.6667	–	16.73
308.15 K, x1 = 0.545	1.32	20.84
308.15 K, x1 = 0.583	1.26	18.31
308.15 K, x1 = 0.643	1.21	15.39
308.15 K, x1 = 0.667	1.2	14.59
313.15 K, x1 = 0.5	–	20.76
313.15 K, x1 = 0.5238	–	19.48
313.15 K, x1 = 0.545	1.51	18.1
313.15 K, x1 = 0.5653	–	16.92
313.15 K, x1 = 0.583	1.44	16.03
313.15 K, x1 = 0.5834	–	16.01
313.15 K, x1 = 0.6001	–	15.28
313.15 K, x1 = 0.615	1.39	14.61
313.15 K, x1 = 0.6296	–	13.96
313.15 K, x1 = 0.6429	–	13.53
313.15 K, x1 = 0.643	1.36	13.54
313.15 K, x1 = 0.6551	–	13.12
313.15 K, x1 = 0.6667	–	12.87
313.15 K, x1 = 0.667	1.34	12.87
318.15 K, x1 = 0.545	1.71	15.92
318.15 K, x1 = 0.583	1.63	14.15
318.15 K, x1 = 0.615	1.57	12.78
318.15 K, x1 = 0.643	1.52	12.04
323.15 K, x1 = 0.5238	–	15.16
323.15 K, x1 = 0.545	1.93	14.15
323.15 K, x1 = 0.5653	–	13.29
323.15 K, x1 = 0.583	1.83	12.61
323.15 K, x1 = 0.5834	–	12.6
323.15 K, x1 = 0.6001	–	12.09
323.15 K, x1 = 0.615	1.76	11.56
323.15 K, x1 = 0.6154	–	11.55
323.15 K, x1 = 0.6429	–	10.78
323.15 K, x1 = 0.643	1.69	10.8
323.15 K, x1 = 0.6551	–	10.48
323.15 K, x1 = 0.6667	–	10.17
323.15 K, x1 = 0.667	1.66	10.17
328.15 K, x1 = 0.545	2.15	12.7
328.15 K, x1 = 0.583	2.04	11.34
328.15 K, x1 = 0.615	1.95	10.45
328.15 K, x1 = 0.667	1.83	9.05
333.15 K, x1 = 0.5	–	12.95
333.15 K, x1 = 0.545	2.39	11.49
333.15 K, x1 = 0.5454	–	11.47
333.15 K, x1 = 0.5653	–	10.83
333.15 K, x1 = 0.583	2.26	10.29
333.15 K, x1 = 0.5834	–	10.28
333.15 K, x1 = 0.6154	–	9.49
333.15 K, x1 = 0.6429	–	8.88
333.15 K, x1 = 0.643	2.07	8.88
333.15 K, x1 = 0.6551	–	8.63
333.15 K, x1 = 0.6667	–	8.23
333.15 K, x1 = 0.667	2.01	8.23
338.15 K, x1 = 0.545	2.63	10.48
338.15 K, x1 = 0.583	2.49	9.4
338.15 K, x1 = 0.615	2.38	8.69
338.15 K, x1 = 0.643	2.28	8.14
338.15 K, x1 = 0.667	2.2	7.43
343.15 K, x1 = 0.5	–	10.78
343.15 K, x1 = 0.5238	–	10.26
343.15 K, x1 = 0.545	2.88	9.63
343.15 K, x1 = 0.5653	–	9.09
343.15 K, x1 = 0.583	2.73	8.64
343.15 K, x1 = 0.6001	–	8.34
343.15 K, x1 = 0.615	2.6	8.01
343.15 K, x1 = 0.6154	–	8.01
343.15 K, x1 = 0.6296	–	7.73
343.15 K, x1 = 0.643	2.5	7.5
343.15 K, x1 = 0.6551	–	7.209
343.15 K, x1 = 0.6667	–	6.824
343.15 K, x1 = 0.667	2.4	6.824
